≈ marks a conversion by molar mass, not a printed value.

For the first experiment, the system named is Mycobacterium tuberculosis. Briefly: Ratio of MIC for ethambutol to compound for Mycobacterium tuberculosis H37Rv. It counts as functional.
With `CN1CC2=C(NC(=S)NC2c2c(Cl)cccc2Cl)/C(=C/c2c(Cl)cccc2Cl)C1` (stereo not given), the Ratio was found to be 1.4.

`S=C1NC2=C(CN(Cc3ccccc3)C/C2=C\c2ccc(Cl)cc2Cl)C(c2ccc(Cl)cc2Cl)N1` (stereo not given): the Ratio came to 2.7. Regarding `Fc1cccc(/C=C2\CN(Cc3ccccc3)CC3=C2NC(=S)NC3c2cccc(F)c2)c1` (stereo not given), the Ratio is given as 1.1. With `Fc1ccc(/C=C2\CN(Cc3ccccc3)CC3=C2NC(=S)NC3c2ccc(F)cc2)cc1` (stereo not given), the Ratio is listed as 2.2.

The subject of another experiment is Mycobacterium tuberculosis. In words: Ratio of MIC for ciprofloxacin to compound for Mycobacterium tuberculosis H37Rv. It counts as functional.
For `S=C1NC2=C(CN(Cc3ccccc3)C/C2=C\c2ccc(Cl)cc2Cl)C(c2ccc(Cl)cc2Cl)N1` (stereo not given), the Ratio is on record as 1.7. With `Fc1ccc(/C=C2\CN(Cc3ccccc3)CC3=C2NC(=S)NC3c2ccc(F)cc2)cc1` (stereo not given), the Ratio turned out to be 1.4.

For another experiment, the system named is Mycobacterium tuberculosis. Briefly: Antituberculosis activity against Mycobacterium tuberculosis H37Rv by agar dilution method. It counts as functional. (In agar dilution the substance is mixed into plates at graded concentrations.)
The term MIC denotes the lowest concentration found to suppress growth. High values mean a need for much substance, low ones inhibition by little substance. `CN1CC2=C(NC(=S)NC2c2ccc(N(C)C)cc2)/C(=C/c2ccc(N(C)C)cc2)C1` (stereo not given) returned an MIC of 57.7 µM (≈ 25 µg/mL). Still for that read-out and setting: then `COc1ccc(OC)c(/C=C2\CN(C)CC3=C2NC(=S)NC3c2cc(OC)ccc2OC)c1` (stereo not given), with 53.5 µM (≈ 25 µg/mL); and `COc1ccc(/C=C2\CN(C)CC3=C2NC(=S)NC3c2ccc(OC)c(OC)c2)cc1OC` (stereo not given), with 53.5 µM (≈ 25 µg/mL). Molecule `Cc1ccccc1/C=C1\CN(C)CC2=C1NC(=S)NC2c1ccccc1C` (stereo not given) showed an MIC of 66.6 µM (≈ 25 µg/mL). On the same count and under the same terms, next, `CC(C)c1ccc(/C=C2\CN(C)CC3=C2NC(=S)NC3c2ccc(C(C)C)cc2)cc1` (stereo not given): 57.9 µM (≈ 25 µg/mL); `CN1CC2=C(N=C(S)NC2c2ccccc2)/C(=C/c2ccccc2)C1` (stereo not given): 71.9 µM (≈ 25 µg/mL); `CN1CC2=C(NC(=S)NC2c2cccc3ccccc23)/C(=C/c2cccc3ccccc23)C1` (stereo not given): 55.9 µM (≈ 25 µg/mL).

`CN1CC2=C(N=C(S)NC2c2ccccc2Cl)/C(=C/c2ccccc2Cl)C1` (stereo not given) returned an MIC of 30 µM (≈ 12.5 µg/mL). The same measure, in the same setting: next, `CN1CC2=C(NC(=S)NC2c2ccc(Cl)cc2Cl)/C(=C/c2ccc(Cl)cc2Cl)C1` (stereo not given): 12.9 µM (≈ 6.26 µg/mL); `CN1CC2=C(N=C(S)NC2c2ccc(Cl)cc2)/C(=C/c2ccc(Cl)cc2)C1` (stereo not given): 30 µM (≈ 12.5 µg/mL). The same measure, in the same setting: next, `CN1CC2=C(NC(=S)NC2c2cccc(F)c2)/C(=C/c2cccc(F)c2)C1` (stereo not given): 16.3 µM (≈ 6.25 µg/mL).

With `CN1CC2=C(NC(=S)NC2c2ccc(F)cc2)/C(=C/c2ccc(F)cc2)C1` (stereo not given), it took 32.6 µM (≈ 12.5 µg/mL) to inhibit growth (MIC). Still for that read-out and setting: then `CN1CC2=C(NC(=S)NC2c2cccc(Br)c2)/C(=C/c2cccc(Br)c2)C1` (stereo not given), with 24.7 µM (≈ 12.5 µg/mL); and `COc1ccccc1/C=C1\CN(C)CC2=C1NC(=S)NC2c1ccccc1OC` (stereo not given), with 61.4 µM (≈ 25 µg/mL); and `CN1CC2=C(NC(=S)NC2c2c(Cl)cccc2Cl)/C(=C/c2c(Cl)cccc2Cl)C1` (stereo not given), with 5.6 µM (≈ 2.72 µg/mL).

For `CN1CC2=C(NC(=S)NC2c2ccc(Br)cc2)/C(=C/c2ccc(Br)cc2)C1` (stereo not given), the MIC turned out to be 24.7 µM (≈ 12.5 µg/mL). Still for that read-out and setting: next, `CN1CC2=C(NC(=S)NC2c2ccc3ccccc3c2)/C(=C/c2ccc3ccccc3c2)C1` (stereo not given): 55.9 µM (≈ 25 µg/mL). The same measure, in the same setting: then `CN(C)c1ccc(/C=C2\CN(Cc3ccccc3)CC3=C2NC(=S)NC3c2ccc(N(C)C)cc2)cc1` (stereo not given), with 49.1 µM (≈ 25 µg/mL); and `COc1ccc(OC)c(/C=C2\CN(Cc3ccccc3)CC3=C2NC(=S)NC3c2cc(OC)ccc2OC)c1` (stereo not given), with 46 µM (≈ 25 µg/mL); and `COc1ccc(/C=C2\CN(Cc3ccccc3)CC3=C2NC(=S)NC3c2ccc(OC)c(OC)c2)cc1OC` (stereo not given), with 46 µM (≈ 25 µg/mL). Still for that read-out and setting: then `COc1ccc(/C=C2\CN(Cc3ccccc3)CC3=C2NC(=S)NC3c2ccc(OC)cc2)cc1` (stereo not given), with 51.7 µM (≈ 25 µg/mL). In turn, `Cc1ccccc1/C=C1\CN(Cc2ccccc2)CC2=C1NC(=S)NC2c1ccccc1C` (stereo not given) yielded an MIC of 55.4 µM (≈ 25 µg/mL). On the same count and under the same terms, then `CC(C)c1ccc(/C=C2\CN(Cc3ccccc3)CC3=C2NC(=S)NC3c2ccc(C(C)C)cc2)cc1` (stereo not given), with 24.6 µM (≈ 12.5 µg/mL); and `Cc1ccc(/C=C2\CN(Cc3ccccc3)CC3=C2NC(=S)NC3c2ccc(C)cc2)cc1` (stereo not given), with 55.4 µM (≈ 25 µg/mL); and `S=C1NC2=C(CN(Cc3ccccc3)C/C2=C\c2ccccc2)C(c2ccccc2)N1` (stereo not given), with 59 µM (≈ 25 µg/mL). The same measure, in the same setting: next, `S=C1NC2=C(CN(Cc3ccccc3)C/C2=C\c2cccc3ccccc23)C(c2cccc3ccccc23)N1` (stereo not given): 47.7 µM (≈ 25 µg/mL). Same read-out and setting: next, `S=C1NC2=C(CN(Cc3ccccc3)C/C2=C\c2ccccc2Cl)C(c2ccccc2Cl)N1` (stereo not given): 25.4 µM (≈ 12.5 µg/mL). Turning to `S=C1NC2=C(CN(Cc3ccccc3)C/C2=C\c2ccc(Cl)cc2Cl)C(c2ccc(Cl)cc2Cl)N1` (stereo not given), it took 2.8 µM (≈ 1.57 µg/mL) to inhibit growth (MIC).

Take `S=C1NC2=C(CN(Cc3ccccc3)C/C2=C\c2ccc(Cl)cc2)C(c2ccc(Cl)cc2)N1` (stereo not given): the MIC worked out at 25.4 µM (≈ 12.5 µg/mL). On the same count and under the same terms, then `Fc1cccc(/C=C2\CN(Cc3ccccc3)CC3=C2NC(=S)NC3c2cccc(F)c2)c1` (stereo not given), with 6.8 µM (≈ 3.13 µg/mL); and `Fc1ccc(/C=C2\CN(Cc3ccccc3)CC3=C2NC(=S)NC3c2ccc(F)cc2)cc1` (stereo not given), with 3.4 µM (≈ 1.56 µg/mL); and `S=C1NC2=C(CN(Cc3ccccc3)C/C2=C\c2ccccc2Br)C(c2ccccc2Br)N1` (stereo not given), with 21.5 µM (≈ 12.5 µg/mL).

Molecule `COc1cc(/C=C2\CN(Cc3ccccc3)CC3=C2NC(=S)NC3c2cc(OC)c(OC)c(OC)c2)cc(OC)c1OC` (stereo not given) registered an MIC of 41.4 µM (≈ 25 µg/mL).

As to `Cc1ccc(/C=C2\CN(C)CC3=C2N=C(S)NC3c2ccc(C)cc2)cc1` (stereo not given), 66.6 µM (≈ 25 µg/mL) was the least that counted as inhibitory (MIC). Same read-out and setting: then `CN1CC2=C(N=C(S)NC2c2cccs2)/C(=C/c2cccs2)C1` (stereo not given), with 69.5 µM (≈ 25 µg/mL).

`COc1ccc(/C=C2\CN(C)CC3=C2N=C(S)NC3c2ccc(OC)cc2)cc1` (stereo not given) gave an MIC of 61.4 µM (≈ 25 µg/mL). Still for that read-out and setting: next, `CC[C@@H](CO)NCCN[C@@H](CC)CO` [ETHAMBUTOL]: 7.6 µM (≈ 1.55 µg/mL); `NNC(=O)c1ccncc1` [ISONIAZID]: 0.4 µM (≈ 0.0549 µg/mL); `CO[C@H]1/C=C/O[C@@]2(C)Oc3c(C)c(O)c4c(O)c(c(/C=N/N5CCN(C)CC5)c(O)c4c3C2=O)NC(=O)/C(C)=C\C=C\[C@H](C)[C@H](O)[C@@H](C)[C@@H](O)[C@@H](C)[C@H](OC(C)=O)[C@@H]1C` [RIFAMPIN]: 0.1 µM (≈ 0.0823 µg/mL).
